The values that follow come from PMC8868518, “Exploring Titanium(IV) Complexes as Potential Antimicrobial Compounds” (Antibiotics, 2022).

Series [1] has as its system P. aeruginosa (ATCC 27853). Description: CO-ADD antibacterial assay, growth inhibition (OD600). Type of series: cell-based, Pseudomonas aeruginosa. Conditions: up to 32 μg/mL; for MIC / Dmax: Pseudomonas aeruginosa, ATCC27853; for MIC / MIC P. aeruginosa: predicted or measured MIC, ≥75% growth inhibition; for Dmax: read-out: Dmax P. aeruginosa, maximum % inhibition.
In series [2] the test system is K. pneumoniae (ATCC 700603). The description is as above. Type of series: cell-based, Klebsiella pneumoniae. Conditions: up to 32 μg/mL; for MIC / Dmax: Klebsiella pneumoniae, ATCC700603; for MIC / MIC K. pneumoniae: predicted or measured MIC, ≥75% growth inhibition; for Dmax: read-out: Dmax K. pneumoniae, maximum % inhibition.
The subject of series [3] is MRC-5 cells. Description: MRC-5 cell viability, dose-response treatment, MTT assay. Type of series: cell-based, human. Conditions: MRC-5 cells, MTT, 72 h, pH 7.4, n = 6, this work. A general note: Tetrazolium dyes change colour on reduction, which living cells bring about.
Series [4] relates to HEK293 ATCC CRL-1573 human embryonic kidney cells. Put plainly: CO-ADD cytotoxicity assay (resazurin). The series is classed as cell-based. Conditions: for antiproliferative effect against HEK293 (in words): all concentrations examined (0.25-32 μg/mL), 20 h, CC50 could not be measured. (Resazurin is reduced to fluorescent resorufin, in cell work by metabolically active cells.)

[5] abbreviates: Homo sapiens, MRC5, read-out: IC50 ± SD.
The mark [6] stands for this setting: Homo sapiens, MRC5, read-out: IC50 ± SD (µg/mL).

Where a name gives a salt, the structure may show the parent alone. Read-outs that look alike come from different tables or passages of the source.

Consider `O=C(O)c1ccccc1O` [Compound 6, salicylic acid, reference compound], for which the MIC in series [1] and in series [2] was over 32 µg/mL in each case. Besides, the Dmax stood at 9.76% in series [1] and 17.1% in series [2]. Also, the values for the IC50 in series [3] (setting [5]) and in series [3] (setting [6]) were over 100 µM and over 13.8 µg/mL, respectively.
For the compound `O=C(O)c1ccc(-n2nc3nc2-c2ccccc2[O][Ti]2([O]c4ccccc4-3)[O]c3ccccc3-c3nc(n(-c4ccc(C(=O)O)cc4)n3)-c3ccccc3[O]2)cc1` [Compound 10, titanium(IV) bis(deferasirox)], the “antiproliferative effect against HEK293 (in words)” value (“antiproliferative effect” for short) in series [4] was “insignificant antiproliferative effect”. Also, in series [1], the “MIC P. aeruginosa” value is over 32 µg/mL and the “Dmax P. aeruginosa, maximum % inhibition” value was determined as 7.57%. Further, in series [2], the “MIC K. pneumoniae” value is over 32 µg/mL and the “Dmax K. pneumoniae, maximum % inhibition” value was determined as 34.61%.
With `O=C([O-])C(=O)O.O=C([O-])C(=O)O.[K+].[K+].[O]=[Ti]` [Compound 14, Potassium dioxalatoxotitanate(IV) dihydrate], in series [4], the “antiproliferative effect” value is reported as “insignificant antiproliferative effect”. Further, in series [1], the “MIC P. aeruginosa” value was over 32 µg/mL and the “Dmax P. aeruginosa, maximum % inhibition” value turned out to be 7.5%. Besides, in series [2], the “MIC K. pneumoniae” value was over 32 µg/mL and the “Dmax K. pneumoniae, maximum % inhibition” value is listed as 17.2%. In addition, the “IC50 ± SD (µg/mL)” value in series [3] was >>35.4 µg/mL. Moreover, in series [3] (read-out: IC50 ± SD), the IC50 is over 100 µM.
On to `[K+].[K+].c1ccc2cc3c(cc2c1)[O][Ti-2]12([O]3)([O]c3cc4ccccc4cc3[O]1)[O]c1cc3ccccc3cc1[O]2` [Compound 8, K2[Ti(Naphthalene-2,3-diolate)3]], for which the “antiproliferative effect” value in series [4] was “inactive”. In series [1], the “MIC P. aeruginosa” value is over 32 µg/mL and the “Dmax P. aeruginosa, maximum % inhibition” value came out at 13.43%. Further, in series [2], the “MIC K. pneumoniae” value was over 32 µg/mL and the “Dmax K. pneumoniae, maximum % inhibition” value stood at 22.94%. The “IC50 ± SD (µg/mL)” value in series [3] is >>65.5 µg/mL. In addition, the IC50 in series [3] (read-out: IC50 ± SD) was over 100 µM.
[Cu(Deferasirox)(H2O)]2 [Compound 15]: the “inhibition of HEK293 cell proliferation” value in series [4] (at the maximum concentration tested) is reported as about 50%. In addition, in series [1], the “MIC P. aeruginosa” value was over 32 µg/mL and the “Dmax P. aeruginosa, maximum % inhibition” value is reported as 19.2%. For the same compound, in series [2], the “MIC K. pneumoniae” value is over 32 µg/mL and the “Dmax K. pneumoniae, maximum % inhibition” value was found to be 7.7%. Also, the “IC50 ± SD” value in series [3] is reported as 7.70 ± 1.47 µg/mL. In addition, the IC50 in series [3] (read-out: IC50 ± SD) is 8.4 ± 1.62 µM.
As for `O=C(O)CC(O)(CC(=O)O)C(=O)O` [Compound 1, Trisodium citrate, reference compound], the MIC in series [1] and in series [2] was over 32 µg/mL each time. The Dmax is 10.3% in series [1] and 14.2% in series [2]. Moreover, the values for the IC50 in series [3] (setting [5]) and in series [3] (setting [6]) were over 100 µM and over 29.4 µg/mL, respectively.
For the compound `Oc1cc2ccccc2cc1O` [Compound 2, 2,3-dihydroxynaphthalene, reference compound], the MIC in series [1] and in series [2] was over 32 µg/mL each time. For the same compound, the Dmax came out at 14.6% in series [1] and 26.8% in series [2]. For the same compound, the IC50 in series [3] (setting [5]) was over 100 µM; in series [3] (setting [6]) it was over 16 µg/mL.

The MIC is the least concentration at which growth counts as inhibited.
